# Measurements reported in patent publication US9447408B2, “Method of efficiently establishing induced pluripotent stem cells” (Kyoto University, priority 2010, dated 2016).
# Experiments:
# [1] = system: Human dermal fibroblasts (HDF 1616 line); assay: Human iPS cell colony formation, 4 genes introduced, SB202190 added Day 0 or day 5; assay type: cell-based
# Description: Human dermal fibroblasts (HDF 1616 line) were treated using a lentivirus (pLenti6/UbC-Slc7a1) according to the method described by Takahashi, K. et al. in Cell, 131: 861-872 (2007), to express the mouse ecotropic virus receptor Slc7a1 gene. These cells were seeded to a 6-well culture plate (Falcon), previously coated with 0.1% gelatin (Sigma), at 1.0×10^5 cells per well. The following day, the four human genes were introduced using a retrovirus according to the method described by Takahashi, K. et al. in Cell, 131: 861-872 (2007). On day 4 after the infection, 2.0×10^5 cells were seeded to a 100 mm dish, containing previously seeded feeder cells. To determine the effect of a p38 inhibitor, SB202190 was added simultaneously with the infection (Day 0), or on day 5 after the infection, and the efficiency of iPS cell establishment was compared. On day 16 after the infection, iPS cell colonies were counted. The results are shown in the upper panel in FIG. 3. In the context of introduction of the four genes (Oct3/4, Sox2, Klf4, C-Myc), the number of human iPS cell colonies increased with the addition of SB202190 in the initial stage after the infection, compared with the addition of DMSO for control and the addition of SB202190 on day 5 after the infection. The four genes were introduced using a retrovirus in the same manner, but at a different cell density (3×10^4 cells/10 cm dish), with simultaneous addition of SB202190 (Day 0). SB202190 was added also on day 5 after the infection, and the efficiency of iPS cell establishment was compared. On day 16 after the infection, colony sizes were measured. The results are shown in the lower panel in FIG. 3. Even when the cell density was changed, the number of iPS cell colonies increased with the addition of SB202190 along with the four factors (Oct3/4, Sox2, Klf4, C-Myc), compared with the addition of DMSO.
# [2] = system: Human dermal fibroblasts (Tig109 line); assay: Human iPS cell colony formation, 3 genes introduced, various p38 inhibitors; assay type: cell-based; details: 10 μM inhibitor
# Description: Human dermal fibroblasts (Tig109 line) were treated using a lentivirus (pLenti6/UbC-Slc7a1) according to the method described by Takahashi, K. et al. in Cell, 131: 861-872 (2007), to express the mouse ecotropic virus receptor Slc7a1 gene. These cells (2×10^5 cells/10 cm dish) were transfected with the four genes using a retrovirus according to the method described by Takahashi, K. et al. in Cell, 131: 861-872 (2007); each compound was added per the schedule shown below. • 1. Oct3/4, Sox2, Klf4, c-Myc, each derived from human, saline • 2. Oct3/4, Sox2, Klf4, c-Myc, each derived from human, DMSO (Day 5-35) • 3. Oct3/4, Sox2, Klf4, c-Myc, each derived from human, SB202190 10 μM (Day 5-20) • 4. Oct3/4, Sox2, Klf4, c-Myc, each derived from human, SB239063 10 μM (Day 5-20) • 5. Oct3/4, Sox2, Klf4, c-Myc, each derived from human, SB202190 10 μM (Day 21-35) • 6. Oct3/4, Sox2, Klf4, c-Myc, each derived from human, SB239063 10 μM (Day 21-35) • 7. Oct3/4, Sox2, Klf4, c-Myc, each derived from human, SB202190 10 μM (Day 5-35) • 8. Oct3/4, Sox2, Klf4, c-Myc, each derived from human, SB239063 10 μM (Day 5-35) Subsequently, three genes (Oct3/4, Sox2, Klf4) were introduced using a retrovirus in the same manner, and the efficiency of iPS cell establishment was compared. • 1. Oct3/4, Sox2, Klf4, each derived from human, saline • 2. Oct3/4, Sox2, Klf4, each derived from human, DMSO (Day 5-35) • 3. […]
structure (smiles),measurement,setting,value
"Oc1ccc(-c2nc(-c3ccc(F)cc3)c(-c3ccncc3)[nH]2)cc1 [SB202190, 4-(4-fluorophenyl)-2-(4-hydroxyphenyl)-5-(4-pyridyl)imidazole]",number of human iPS cell colonies on day 16 after the infection,"[1]; 2.0×10^5 cells/100 mm dish, added in the initial stage (Day 0), compared with DMSO and addition on day 5",increased
same,number of iPS cell colonies on day 16 compared with DMSO,[1]; 3×10^4 cells/10 cm dish,increased
same,"efficiency of iPS cell establishment, added on day 5 versus simultaneously with the infection",[1]; lower cell density 3×10^4 cells/10 cm dish,higher
same,number of iPS cell colonies on day 40 after the infection compared with physiological saline and DMSO,[2],increased remarkably
same,number of positive colonies on day 32 after the infection compared with physiological saline and DMSO,[2],increased
